Assay type in all cases: in vivo, mice
Test [1] has as its system PC3-ML-Luc metastases. The test is described as follows: FDG-PET/CT, intra-cardiac PC3-ML-Luc metastasis model. The conditions noted are these: PCa-3, same mouse. The protocol:
(§1) FIGS. 17A-E. AEG-Prom-based SPECT/CT imaging detects distant metastasis not identified by NaF- or FDG-PET/CT. The experimental metastases model, PCa-3 (n=5), was developed by intra-cardiac injection of 5×10^4 PC3-ML-Luc cells, SPECT/CT images for PCa-3 and a representative healthy control Ctrl-1 were obtained at 18-20 h after [^125I]FIAU injection, which was 66-68 h after IV administration of pAEG-HSV1tk-PEI polyplex. (17A, 17B) NaF-PET/CT, AEG-Prom SPECT/CT and FDG-PET imaging in Ctrl-1 (17A) and the PC3-ML-Luc model. PCa-3 (17B). (17D, 17E) Gross pathology of the metastatic nodules that were located on the basis of the SPECT/CT images. ([…]) Ex vivo BLI of the dissected organs, imaged within 20 min of euthanasia. […] A possible L1 lesion was detected by FDG/PET (17B). […]
(§2) Cloning of plasmid constructs. pPEG-Luc and pAEG-Luc were generated as described previously (3, 28). […] Luminescence was normalized for transfection efficiency by co-transfection with a vector expressing renilla luciferase, pGL4.74[hRluc/TK] […] After 48 h of transfection, the expression level of the Luc reporter was measured by the Dual Luciferase Reporter Assay kit (Promega). Luminescence was normalized for cell number (by μg total protein) using the BCA Protein Assay Kit (Pierce Biotechnology, Rockford, Ill.). […]

Test [2] deals with breast cancer metastasis model, BCa-1. Nature of the test: Cross-comparison of PEG-Prom-mediated SPECT imaging and FDG-PET. The conditions noted are these: BCa-1, PET acquired same day as SPECT. On the procedure:
FIGS. 7A-7D. Detection and localization of metastatic masses of melanoma after the systemic administration of pPEG-HSV1 tk by SPECT-CT imaging. Transverse, coronal and sagittal views of co-registered SPECT-CT images of Mel-2 (7A) and Mel-3 (7B, 7C and 7D) from FIG. 6C. All images were obtained at 24 h after [^125I]FIAU injection, which was 70 h after the IV administration of pPEG-HSV1 tk/PEI polyplex. Gross anatomical details of the metastatic masses that were located based on the SPECT-CT images in 7A, 7B, 7C and 7D. Multiple metastatic sites were detected by SPECT-CT imaging in Mel-2 (7A, dotted circle). […] (7B) Accumulated radioactivity was detected adjacent to the thoracic mid-spine toward the left side (white arrow), which corresponded to a tumor mass at this location. […] Melanoma was uncovered immediately above the diaphragm (f, white dotted circle) and in the left inguinal lymph node, correlating with 7C and 7D. Cross-comparison of the PEG-Prom-mediated imaging and FDG-PET in abreast cancer metastasis model, BCa-1. Two nodules (Tu-1 and -2) were detected by [^125I]FIAU-SPECT near the heart and were confirmed by necropsy. […] SPECT images were acquired 48 h post-injection of [^125I]FIAU, which was 94 h after the pPEG-HSV1 tk/PEI delivery. The PET images were acquired on the same day as the SPECT data. […]

Test [3] deals with PC3-ML-Luc metastases. Nature of the test: NaF-PET/CT, intra-cardiac PC3-ML-Luc metastasis model. The conditions noted are these: PCa-3. The protocol: as §1, §2

With `OC[C@H]1OC(O)[C@H]([18F])[C@@H](O)[C@@H]1O` (stereo partly drawn) [FDG, [^18F]fluorodeoxyglucose], the “Detection of metastatic lesions by FDG-PET/CT” value with PC3-ML-Luc metastases [1] is recorded as “only able to identify a lesion in the left shoulder”. Moreover, in test [2], the “Detection of nodule Tu-2 (smaller nodule attached to the heart)” value was “not obvious in the PET image”.
Turning to `[18F-].[Na+]` [NaF, [^18F]NaF], in the test with PC3-ML-Luc metastases [3], the “Detection of metastatic lesions by NaF-PET/CT” value is “failed to identify the metastases within tibia and axial skeleton”.
